Assays:
FLT3 = biological target: T1, FLT3 (Homo sapiens, UniProt P36888); assay: TR-FRET kinase activity assay, FLT3; type: biochemical; conditions: ATP at Km, 60 minutes
T1 sequence (P36888 27-993): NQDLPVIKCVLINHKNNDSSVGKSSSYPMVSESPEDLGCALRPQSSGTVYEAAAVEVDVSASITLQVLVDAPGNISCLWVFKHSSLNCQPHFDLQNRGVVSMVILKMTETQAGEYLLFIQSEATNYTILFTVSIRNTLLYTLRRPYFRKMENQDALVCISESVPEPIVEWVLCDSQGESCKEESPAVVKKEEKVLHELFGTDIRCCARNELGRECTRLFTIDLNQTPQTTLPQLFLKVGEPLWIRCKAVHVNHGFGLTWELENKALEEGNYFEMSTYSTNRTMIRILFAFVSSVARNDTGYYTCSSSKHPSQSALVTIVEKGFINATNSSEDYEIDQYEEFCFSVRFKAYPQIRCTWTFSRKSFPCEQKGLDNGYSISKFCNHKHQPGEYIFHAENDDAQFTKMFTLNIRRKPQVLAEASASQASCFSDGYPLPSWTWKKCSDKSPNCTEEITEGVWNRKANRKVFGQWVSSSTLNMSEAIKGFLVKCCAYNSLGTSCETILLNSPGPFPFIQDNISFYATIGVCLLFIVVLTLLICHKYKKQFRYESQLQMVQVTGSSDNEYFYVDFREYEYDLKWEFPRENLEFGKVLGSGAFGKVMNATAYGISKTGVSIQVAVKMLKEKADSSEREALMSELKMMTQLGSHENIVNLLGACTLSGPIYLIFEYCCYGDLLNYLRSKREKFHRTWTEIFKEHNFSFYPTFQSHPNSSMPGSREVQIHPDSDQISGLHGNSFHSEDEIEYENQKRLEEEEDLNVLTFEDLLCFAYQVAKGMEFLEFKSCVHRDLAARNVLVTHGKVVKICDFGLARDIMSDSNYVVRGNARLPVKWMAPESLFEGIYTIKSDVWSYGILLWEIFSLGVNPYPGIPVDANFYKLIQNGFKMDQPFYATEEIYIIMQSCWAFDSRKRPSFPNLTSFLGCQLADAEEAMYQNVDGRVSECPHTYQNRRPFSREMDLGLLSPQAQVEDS
Procedure, shortened: (§1)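 Buffer 50 mM HEPES pH 7.5/10 mM MgCl2/1 mM EGTA/0.01% Brij 35/1 mM DTT, RT. Km ATP per kinase, labeled peptide, 60 min; 12.5 mM EDTA stop; Eu-Ab 30 min dark; TR-FRET → IC50.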

MERTK = biological target: T2, MERTK (Homo sapiens, UniProt Q12866); assay: TR-FRET kinase activity assay, MERTK; type: biochemical; conditions: for IC50: TR-FRET activity assay, ATP at Km, 60 minutes, read-out: Mer IC50; for Mer/Flt3 ratio (FLT3 IC50/Mer IC50): ratio calculated as FLT3 IC50/Mer IC50
T2 sequence (Q12866 21-999): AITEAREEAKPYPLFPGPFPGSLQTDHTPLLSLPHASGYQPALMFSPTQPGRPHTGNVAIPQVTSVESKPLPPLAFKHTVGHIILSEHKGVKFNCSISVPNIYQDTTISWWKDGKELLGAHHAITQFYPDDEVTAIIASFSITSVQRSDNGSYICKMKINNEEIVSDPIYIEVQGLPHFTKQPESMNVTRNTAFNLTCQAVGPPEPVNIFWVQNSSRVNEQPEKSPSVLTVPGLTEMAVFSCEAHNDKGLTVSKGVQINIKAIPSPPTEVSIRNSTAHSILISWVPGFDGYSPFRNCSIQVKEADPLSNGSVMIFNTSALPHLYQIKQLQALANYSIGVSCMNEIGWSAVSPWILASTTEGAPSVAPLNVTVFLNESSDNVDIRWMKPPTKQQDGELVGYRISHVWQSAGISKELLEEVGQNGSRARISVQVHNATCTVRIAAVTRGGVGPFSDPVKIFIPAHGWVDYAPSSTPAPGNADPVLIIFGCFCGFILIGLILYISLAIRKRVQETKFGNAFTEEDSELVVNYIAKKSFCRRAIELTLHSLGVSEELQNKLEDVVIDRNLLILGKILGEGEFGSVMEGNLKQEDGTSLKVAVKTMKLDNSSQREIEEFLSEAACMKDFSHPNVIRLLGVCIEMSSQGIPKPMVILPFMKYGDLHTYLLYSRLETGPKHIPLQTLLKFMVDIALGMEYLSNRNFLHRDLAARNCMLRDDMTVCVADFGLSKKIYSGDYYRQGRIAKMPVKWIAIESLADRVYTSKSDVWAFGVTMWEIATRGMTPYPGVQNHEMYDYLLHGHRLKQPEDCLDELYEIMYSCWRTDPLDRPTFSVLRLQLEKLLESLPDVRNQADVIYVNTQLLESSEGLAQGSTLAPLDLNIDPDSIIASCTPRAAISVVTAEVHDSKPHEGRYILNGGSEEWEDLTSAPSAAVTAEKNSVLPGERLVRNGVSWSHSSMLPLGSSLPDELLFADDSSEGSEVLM
Procedure, shortened: as §1

SMILES	IC50 (FLT3) [nM]	IC50 (MERTK) [nM]	Mer/Flt3 ratio (FLT3 IC50/Mer IC50) (MERTK)
COC[C@H](C)Nc1cc2c(cn1)c(OC1CCOCC1)ncc2[C@H]1CC[C@H](O)CC1 [Compound 285]	1000 to 10000	≤ 100	+++ (a ratio of >100)
COC[C@H](C)Nc1ncc2c(OC3CCN(S(C)(=O)=O)CC3)ncc([C@H]3CC[C@H](O)CC3)c2n1 [Compound 289]	1000 to 10000	≤ 100	+++ (a ratio of >100)
CC[C@H](C)Nc1ncc2c(=O)n([C@H]3CC[C@H](N)CC3)cc([C@H]3CC[C@H](O)CC3)c2n1 [Compound 290]	1000 to 10000	≤ 100	+++ (a ratio of >100)
CC1(Nc2ncc3c(OC4CCNCC4)ncc([C@H]4CC[C@H](O)CC4)c3n2)CC1 [Compound 291]	1000 to 10000	≤ 100	+++ (a ratio of >100)
C[C@@H](CC#N)Nc1ncc2c(OC3CCOCC3)ncc([C@H]3CC[C@H](O)CC3)c2n1 [Compound 292]	1000 to 10000	≤ 100	+++ (a ratio of >100)
COC[C@H](C)Nc1ncc2c(OC3CCOCC3)ncc([C@H]3CC[C@](C)(O)CC3)c2n1 [Compound 293]	1000 to 10000	≤ 100	+++ (a ratio of >100)
COC[C@H](C)Nc1ncc2c(OC3CCOCC3)ncc([C@H]3CC[C@@](C)(O)CC3)c2n1 [Compound 294]	1000 to 10000	≤ 100	+++ (a ratio of >100)
COC[C@H](C)Nc1ncc2c(O[C@H]3C[C@H](O)C3)ncc([C@H]3CC[C@H](O)CC3)c2n1 [Compound 295]	1000 to 10000	≤ 100	+++ (a ratio of >100)
COC[C@H](C)Nc1ncc2c(O[C@H]3C[C@@H](O)C3)ncc([C@H]3CC[C@H](O)CC3)c2n1 [Compound 296]	1000 to 10000	≤ 100	+++ (a ratio of >100)
CNC(=O)Nc1ccc(-c2cnc(OC3CCOCC3)c3cnc(N[C@@H](C)COC)nc23)cc1 [Compound 297]	1000 to 10000	100 to 1000	++ (a ratio of between 10 and 100)
CC[C@H](C)Nc1ncc2c(O[C@H]3CC[C@@H](N(C)C)C3)ncc([C@H]3CC[C@H](O)CC3)c2n1 [Compound 298]	1000 to 10000	≤ 100	+++ (a ratio of >100)

The remaining lines, values ahead:

IC50 (FLT3) [nM]	IC50 (MERTK) [nM]	Mer/Flt3 ratio (FLT3 IC50/Mer IC50) (MERTK)	SMILES
1000 to 10000	≤ 100	+++ (a ratio of >100)	CCCC(C)Nc1ncc2c(=O)n(C3CCNCC3)cc([C@H]3CC[C@H](O)CC3)c2n1 (stereo partly drawn) [Compound 112]
100 to 1000	≤ 100	+ (a ratio of >2.0 and <10)	CCCCNc1cc2c(cn1)c(=O)n(C1CCN(C)CC1)cc2[C@H]1CC[C@H](O)CC1 [Compound 116]
1000 to 10000	≤ 100	+++ (a ratio of >100)	CCCC(C)Nc1ncc2c(=O)n(C3CCN(C)CC3)cc([C@H]3CC[C@H](O)CC3)c2n1 (stereo partly drawn) [Compound 117]
1000 to 10000	≤ 100	+++ (a ratio of >100)	CC(C)CC(C)Nc1ncc2c(=O)n(C3CCNCC3)cc([C@H]3CC[C@H](O)CC3)c2n1 (stereo partly drawn) [Compound 119]
1000 to 10000	100 to 1000	++ (a ratio of between 10 and 100)	CS(=O)(=O)N1CC[C@H](Nc2ncc3c(OC4CCOCC4)ncc([C@H]4CC[C@H](O)CC4)c3n2)C1 [Compound 278]
1000 to 10000	100 to 1000	++ (a ratio of between 10 and 100)	COC[C@H](C)Nc1ncc2c(OC3CCOCC3)ncc(-c3ccc(N4CCN(C)CC4)cc3)c2n1 [Compound 279]
1000 to 10000	≤ 100	++ (a ratio of between 10 and 100)	COC[C@H](C)Nc1ncc2c(OC3CCOCC3)ncc(-c3ccc(C4CCN(C)CC4)cc3)c2n1 [Compound 280]
1000 to 10000	≤ 100	+++ (a ratio of >100)	CCOC[C@H](C)Nc1ncc2c(OC3CCOCC3)ncc([C@H]3CC[C@H](O)CC3)c2n1 [Compound 281]
1000 to 10000	1000 to 10000	++ (a ratio of between 10 and 100)	CN1CC(Nc2ncc3c(OC4CCOCC4)ncc([C@H]4CC[C@H](O)CC4)c3n2)CC1=O (stereo partly drawn) [Compound 282]
100 to 1000	≤ 100	+++ (a ratio of >100)	O=C(O)c1ccc(Nc2ncc3c(OC4CCNCC4)ncc([C@H]4CC[C@H](O)CC4)c3n2)cc1 [Compound 283]
1000 to 10000	≤ 100	+++ (a ratio of >100)	C[C@@H](CCO)Nc1ncc2c(OC3CCOCC3)ncc([C@H]3CC[C@H](O)CC3)c2n1 [Compound 284]
≤ 100	≤ 100	+ (a ratio of >2.0 and <10)	O[C@H]1CC[C@H](c2cnc(OC3CCOCC3)c3cnc(NCCC(F)(F)F)nc32)CC1 [Compound 286]
100 to 1000	≤ 100	++ (a ratio of between 10 and 100)	CC[C@H](C)Nc1ncc2c(O[C@H]3CC[C@](C)(O)CC3)ncc([C@H]3CC[C@H](O)CC3)c2n1 [Compound 287]
100 to 1000	≤ 100	+++ (a ratio of >100)	CC(C)Nc1ncc2c(OC3CCOCC3)ncc(-c3cccc(S(=O)(=O)N(C)C)c3)c2n1 [Compound 288]
≤ 100	≤ 100	++ (a ratio of between 10 and 100)	O[C@H]1CC[C@H](c2cnc(OC3CCNCC3)c3cnc(Nc4ccc(Cl)c(Cl)c4)nc32)CC1 [Compound 299]

From patent US20200291018A1, “TAM KINASE INHIBITORS” (SYROS PHARMACEUTICALS, INC., priority 2017, published 2020)
